Measurements as given in patent US20210393547A1, “USE OF EMODIN IN TREATING RETINAL ISCHEMIA OR A DISEASE, CONDITION, OR DISORDER ASSOCIATED WITH RETINAL ISCHEMIA” (priority 2020, published 2021).

How the values were obtained:
[1] = test system: retinal ischemia in Wistar rats; assay: Cresyl violet stained retinal thickness after retinal ischemia/reperfusion; format: in vivo, rat; settings: n=10, mean±SE
Method: Emodin was purchased from Sigma-Aldrich (E7881; 90%; storage at 2-8° C.; from Frangula bark; St. Louis, Mo., United States). Drug administration for different procedures, namely ERG, fluorogold RGC labelling, cresyl violet retinal staining and Western blot assays, were described in Tables 3 to 6. Vehicle or emodin (5 μL) was administered via an intravitreous injection route so that these agents were then able to be directly diffused to the target. Emodin was dissolved in vehicle (DMSO:distilled water=1:3). The defined final cellular concentrations of administered drug were 0.25 or 0.5 μM, which were achieved after 40 times dilution from the stock concentrations, namely 10 or 20 μM, based on an arbitrary definition of the vitreous volume as 200 μL. To test a wider range of dose-response, 4 μM of emodin was thus added in the animal experiments. The Vehicle+IR and Emo+IR groups (pre-ischemic administration of emodin 4, 10 or 20 μM) were subjected to following the experimental procedures; these were initial pre-ischemic intravitreous injection (vehicle or emodin), retinal ischemia induction 1 day later, and sacrifice of the animal on the following day to allow the various post-mortem procedures except ERG. In the post-ischemic treatment group, in order to decrease the number of animals used, the present invention only used a single emodin concentration of 20 μM. Furthermore, intravitreous emodin was given 1 day after initial retinal ischemia induction and animals were sacrificed the following day to allow the performance of various post-mortem procedures as mentioned above. The IOP procedure used raised the IOP and was designed to cause retinal ischemia in Wistar rats and simulate ischemic retinal disorders. The rats were anesthetized and constrained with a sterotaxic frame. A 30-gauge needle connected to an elevated saline bottle was attached to anterior chamber of the rat's eye. The pressure exerted by the saline inside the bottle was controlled to 120 mmHg. This procedure was conducted for 1 hour. Successful retinal ischemia induction was confirmed by observing that the whitening of the retina took place. Throughout the experiments, the animals were kept on heat mats to maintain their temperature. The sham procedure involved keeping the pressure in saline bottle 0 mmHg. After the aforementioned sacrifice of rats, the animals underwent intracardial perfusion with normal saline. The eyeballs were then enucleated, fixed with 4% paraformaldehyde for 1 day at 4° C., dehydrated with ethanol, embedded in paraffin (Tissue-Tek TEC 5; Sakura) and sectioned into 5 μm thickness slices. The sectioned samples were then stained with cresyl violet and examined using a light microscope (Leica). All sectioned retinal samples were photographed under the same magnification (Ilford Pan-F plus film, 50 ASA). The thickness of a retina was determined by sectioning retinal samples at the same distance (1.5 mm from the disc). To evaluate the degree of the injury caused by retinal ischemia, the whole retinal thickness [from the inner limiting membrane (ILM) to the retinal pigment epithelium (RPE) layer] and the inner retinal thickness [from the ILM to the inner nuclear layer (INL)] were measured. All the measurements were carried out by an expert who was unaware of the experimental conditions used to treat the samples.

RGC-5 cells = assay: cells; format: cell-based; settings: Mus musculus, RGC5, read-out: Cell viability (% of control)
Method: RGC-5 cells have been reported to be not transformed rat RGCs, but rather are mouse retinal neuronal precursor cells. OGD was established by incubating RGC-5 cells in Dulbecco's modified Eagle medium (DMEM; Thermo Fisher Scientific Inc.) without glucose at 37° C. under ischemia simulation conditions, namely 1% O2 (measured using a Penguin Incubator; Astec Company, Kukuoka, Japan), 94% N2 and 5% CO2. Various experimental groups (Table 1) were investigated. […]
Mitochondrial nicotinamide adenine dinucleotide phosphate dependent oxidoreductases are able to reduce MTT to produce formazan and thus increased levels of dark purple formazan that are associated with greater cell viability. […] After shaking, the optical density (OD) of the dissolved formazan was measured using an ELISA plate reader (Synergy H1 Multi-Mode Reader BioTek Instruments) at 562 nm. Cell viability was calculated as the change in OD value compared to the untreated control (100%).
The cultured cells were used to identify the effective dose(s) of the tested agent emodin. The effect of emodin (0.25 and 0.5 μM) on the cultured cells was evaluated utilizing MTT cell viability assays and a cellular ischemia simulation model, namely OGD, for 1 day. […]

[2] = Emo10+IR: pre-ischemic intravitreous 10 μM emodin
[3] = Emo20+IR: pre-ischemic intravitreous 20 μM emodin
[4] = IR+Emo20: post-ischemic intravitreous 20 μM emodin

In the case of `Cc1cc(O)c2c(c1)C(=O)c1cc(O)cc(O)c1C2=O` [emodin, 6-methyl-1,3,8-trihydroxyanthraquinone], the inner retina thickness ([1]; Emo4+IR: pre-ischemic intravitreous 4 μM emodin, Sham 79.90, Vehicle+IR 20.97) is reported as 38.60±1.01 μm, the whole retina thickness ([1]; Emo4+IR: pre-ischemic intravitreous 4 μM emodin, Sham 186.50, Vehicle+IR 71.80) is reported as 87.40±0.60 μm and the inner retina thickness [1, 2] is reported as 70.05±0.60 μm. The whole retina thickness [1, 2] was 153.20±1.48 μm, the inner retina thickness [1, 3] was 70.65±2.06 μm and the whole retina thickness [1, 3] was 170.10±0.10 μm. It also gave an inner retina thickness [1, 4] of 69.65±0.68 μm, a whole retina thickness [1, 4] of 125.45±1.68 μm and a viability at 0.25 µM (RGC-5 cells) of 43.8 ± 3.75%. The viability at 0.5 µM (RGC-5 cells) was 47.5 ± 3.99%.
